The values that follow come from PMC6418270, “The pharmacological and functional characterization of the serotonergic system in Anopheles gambiae and Aedes aegypti: influences on flight and blood-feeding behavior” (Scientific Reports, 2019).

Counter-ions that a name gives are not always drawn.

Series [1] deals with T1, AGAP002232 (Anopheles gambiae, UniProt A0A1S4GEY1). Description: Fluo-4 calcium assay in CRE-luc2P HEK-293 cells expressing AGAP002232. It is filed as cell-based. The note with it: for Ability to inhibit activity in a dose-response manner: antagonist test, receptor not given, taken as both 5-HT2 cell lines; for Response to biogenic amines: 10^−4 M, AGAP002232. The protocol:
The GloResponse™ CRE-luc2P human embryonic kidney (HEK-293) reporter cells were incubated at 37 °C with an atmosphere of 5% CO2, and maintained in Dulbecco’s Modified Eagle Medium (DMEM) supplemented with 10% fetal bovine serum (FBS) and […] hygromycin B. Transfection of the HEK-293 cells with 1 μg of plasmid DNA was performed with Amaxa Nucleofector™ technology (Lonza, Basel, Switzerland) as per manufacturer’s instructions. A week post-transfection, selective pressure was applied with […] of G418 antibiotic to generate stable lines.
(§1) 1 × 10^6 cells per well were seeded into a 96-well black all-clear bottom plate and incubated overnight in 10% FBS/90% DMEM at 37 °C with an atmosphere of 5% CO2. The following day, 2X Fluo-4 Direct calcium dye (Molecular Devices LLC, San Jose, CA) was added to each well and incubated in the same conditions for 45 minutes before the assay was completed. At this time, serial dilutions of the test compounds were prepared in a 96-well clear flat bottom plate. Fluorescence levels were determined with a FlexStation3 microplate reader, with excitation and emission wavelengths set to 485 and 525 nm, respectively (Molecular Devices LLC). Basal fluorescence levels were measured for 17 seconds, at which time, 25 μl of the agonist compound was added. Fluorescence measurements continued to be recorded for a total of 120 seconds at 2-second intervals. When testing antagonists, cells were treated with the compound prior to determination of fluorescence levels.
(§2) Luminescence and calcium assay data were normalized and fitted with a non-linear least squares regression to generate dose-response curves, EC50 and IC50 values. Unpaired t-tests or Dunnett’s multiple comparisons test were performed accordingly to compare EC50 or IC50 values. Locomotion was measured based on the distance required for flight recovery. Data were compared with the Kruskal-Wallis and Dunnett’s multiple comparison tests after the Kolmogorov-Smirnov normality test was conducted. In the blood-feeding experiments, the percentage of blood-fed mosquitoes was calculated for each treatment group. For each biological replicate, the treatment groups were normalized with respect to the untreated group. Dunnett’s multiple comparison tests were utilized to determine statistical difference between normalized data. Size of bloodmeals were compared with an unpaired t-test or Mann-Whitney test after normality was evaluated with the Kolmogorov-Smirnov test. All analyses were performed utilizing GraphPad Prism version 7.00 for Mac OS X, GraphPad Software, La Jolla California USA, www.graphpad.com.

The target in series [2] is T2, AGAP002229 (Anopheles gambiae, UniProt A7UR33). Description: Fluo-4 calcium assay in CRE-luc2P HEK-293 cells expressing AGAP002229. The format is cell-based. The settings on record: for Ability to inhibit activity in a dose-response manner: antagonist test, receptor not given, taken as both 5-HT2 cell lines; for Response to biogenic amines: 10^−4 M; for Response to biogenic amines / Receptor activation by agonist: AGAP002229. The protocol: A week post-transfection, selective pressure was applied with […] of G418 antibiotic to generate stable lines.
T2 sequence (A7UR33 entry or part of it): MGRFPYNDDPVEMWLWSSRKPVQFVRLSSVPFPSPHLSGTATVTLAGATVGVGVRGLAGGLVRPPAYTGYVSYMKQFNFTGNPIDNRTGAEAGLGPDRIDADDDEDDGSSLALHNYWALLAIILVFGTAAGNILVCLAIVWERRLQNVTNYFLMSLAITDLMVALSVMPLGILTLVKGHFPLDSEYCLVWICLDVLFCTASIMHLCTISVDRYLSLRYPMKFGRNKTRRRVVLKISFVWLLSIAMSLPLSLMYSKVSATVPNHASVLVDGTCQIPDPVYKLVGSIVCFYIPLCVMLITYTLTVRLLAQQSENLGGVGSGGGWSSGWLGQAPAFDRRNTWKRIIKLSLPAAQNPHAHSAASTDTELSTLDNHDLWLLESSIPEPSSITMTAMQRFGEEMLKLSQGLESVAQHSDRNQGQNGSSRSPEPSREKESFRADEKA
as §1, with “Fluorescence levels were determined with a FlexStation3 microplate reader, with excitation and emission wavelengths set to 485 and 525 nm, respectively (Molecular Devices LLC). Basal fluorescence levels were measured for 17 seconds, at which time, 25 μl of the agonist compound was added.” left out
as §2

For the next series, the system named is 5-HT7 receptors. Set-up: method as in PMID 11282322. The note with it: in humans; cited from earlier work.
In series [3] the test system is Ae. aegypti. Description: Blood-feeding assay (artificial membrane feeder) after microinjection. It is filed as in vivo, Aedes aegypti. The settings on record: 10 mM microinjected. The protocol: (§3) Stock solutions of the compounds were diluted to the appropriate concentrations in 1X phosphate buffer solution (PBS). To account for potential solvent effects, an ultrapure H2O control group was included in every independent experiment. Female mosquitoes were either cold- or CO2-anesthetized. A Nanoject II Auto-Nanoliter Injector (Drummond Scientific Company, Broomall, PA) was then utilized to microinject 69 nL of compound into the spiracle.
Seven to ten-day old female mosquitoes were treated with compound or appropriate control through microinjection post cold-anesthetization or ingestion. Two mL of human O^+ blood (BioChemed Services, Winchester, VA) was utilized to cover the concave surface of an inverted baby food jar. Hog intestine sealed the opening to simulate the puncturing of a host’s skin. The feeding membrane was placed on the top of a mosquito cage, and hot water was poured into the jar to warm the blood. After a 45-minute feed, the mosquitoes were immediately preserved at −20 °C. The blood meal size was determined for each mosquito via hemoglobinometry as previously described.
as §2

Series [4] has as its target T1, AGAP002232. Nature of the series: GloResponse CRE-luc2P cyclic AMP reporter (luminescence) assay, AGAP002232. The format is cell-based. The note with it: 10^−4 M. The method, then: (§4) The reporter construct in the HEK-293 cells regulated the transcription of the luciferase gene in response to cAMP levels, while the Rluc-Neo^r construct in the pF9a expression plasmid served as a normalizing agent. Cells suspended in 1% FBS/99% DMEM without phenol red were seeded in white 96-well plates at a density of 6.6 × 10^5 per well, and immediately treated with varying concentrations of compounds. Following a 4-hour incubation at 37 °C with an atmosphere of 5% CO2, the cells were prepared for a Dual-Glo luciferase assay according to the manufacturer’s instructions (Promega Corporation, Madison, WI). The luminescence units were measured on the SpectraMax L 96 microplate luminometer (Molecular Devices, Sunnyvale, CA) and normalized to the cell number.

Series [5] concerns the target T2, AGAP002229. Description: GloResponse CRE-luc2P cyclic AMP reporter (luminescence) assay, AGAP002229. The format is cell-based. The settings on record: 10^−4 M. The method, then: as §4
The test system of series [6] is Ae. aegypti. Nature of the series: Flight performance in flight cylinder after microinjection. It is filed as in vivo, Aedes aegypti. The method, then: as §3
A flight cylinder was assembled as described previously. The polyacrylamide sheet was coated with Tangle-Trap Sticky Coating (The Scotts Company LLC, Marysville, OH) and allowed to sit overnight before insertion into the flight cylinder. Adult mosquitoes were anesthetized on a CO2 pad and microinjected with the compound or ultrapure H2O control. Post-injection, they were permitted to recover in a fly vial for 30 minutes before being ejected into the flight cylinder. After each trial, the distance between the top of the cylinder and the trapped mosquito was recorded. Mosquitoes captured in the fly vial at the bottom of the cylinder were considered to be incapable of flying and a distance of 91.5 cm was recorded.
as §2

The test system of series [7] is Ae. aegypti. Description: Blood-feeding assay after ingestion of compound in 10% sucrose. The format is in vivo, Aedes aegypti. The method, then:
Sucrose solution was withheld from newly-emerged mosquitoes for two days. On the third day, the mosquitoes were presented with a cotton ball saturated with 400 μL of a 10% sucrose solution laced with compound or the respective control for five days. The cotton ball was exchanged every other day with a fresh one. Seven to ten-day old female mosquitoes were treated with compound or appropriate control through microinjection post cold-anesthetization or ingestion. Two mL of human O^+ blood (BioChemed Services, Winchester, VA) was utilized to cover the concave surface of an inverted baby food jar. Hog intestine sealed the opening to simulate the puncturing of a host’s skin. The feeding membrane was placed on the top of a mosquito cage, and hot water was poured into the jar to warm the blood. After a 45-minute feed, the mosquitoes were immediately preserved at −20 °C. The blood meal size was determined for each mosquito via hemoglobinometry as previously described. Luminescence and calcium assay data were normalized and fitted with a non-linear least squares regression to generate dose-response curves, EC50 and IC50 values. Unpaired t-tests or Dunnett’s multiple comparisons test were performed accordingly to compare EC50 or IC50 values. Locomotion was measured based on the distance required for flight recovery. Data were compared with the Kruskal-Wallis and Dunnett’s multiple comparison tests after the Kolmogorov-Smirnov normality test was conducted. In the blood-feeding experiments, the percentage of blood-fed mosquitoes was calculated for each treatment group. For each biological replicate, the treatment groups were normalized with respect to the untreated group. Dunnett’s multiple comparison tests were utilized to determine statistical difference between normalized data. Size of bloodmeals were compared with an unpaired t-test or Mann-Whitney test after normality was evaluated with the Kolmogorov-Smirnov test. All analyses were performed utilizing GraphPad Prism version 7.00 for Mac OS X, GraphPad Software, La Jolla California USA, www.graphpad.com.

Series [8] deals with Ae. aegypti. Description: Mortality on 10% sucrose solution containing compound. The format is in vivo. The settings on record: after a three-day period. The protocol:
The serotonergic system was manipulated to identify its role in blood-feeding behavior. To allow for the depletion of 5-HT, mosquitoes were fed a 10% sucrose solution containing varying concentrations (1, 5, 10, 25, and 60 mg/mL) of PCPA ethyl ester, a compound that […] tryptophan hydroxylase, a crucial enzyme in 5-HT synthesis. At the two highest concentrations (25 and 60 mg/mL), there was a 100% mortality rate after a three-day period. […] In comparison to the control group, which ingested an average volume of 1.87μL of blood, the average blood meal size for 1 and 5 mg/mL PCPA-treated groups was 1.84 ± 0.16 μL (p = 0.89) and 2.33 ± 0.25 μL (p = 0.12), respectively.
Sucrose solution was withheld from newly-emerged mosquitoes for two days. On the third day, the mosquitoes were presented with a cotton ball saturated with 400 μL of a 10% sucrose solution laced with compound or the respective control for five days. The cotton ball was exchanged every other day with a fresh one.

T1 sequence (A0A1S4GEY1 entry or part of it): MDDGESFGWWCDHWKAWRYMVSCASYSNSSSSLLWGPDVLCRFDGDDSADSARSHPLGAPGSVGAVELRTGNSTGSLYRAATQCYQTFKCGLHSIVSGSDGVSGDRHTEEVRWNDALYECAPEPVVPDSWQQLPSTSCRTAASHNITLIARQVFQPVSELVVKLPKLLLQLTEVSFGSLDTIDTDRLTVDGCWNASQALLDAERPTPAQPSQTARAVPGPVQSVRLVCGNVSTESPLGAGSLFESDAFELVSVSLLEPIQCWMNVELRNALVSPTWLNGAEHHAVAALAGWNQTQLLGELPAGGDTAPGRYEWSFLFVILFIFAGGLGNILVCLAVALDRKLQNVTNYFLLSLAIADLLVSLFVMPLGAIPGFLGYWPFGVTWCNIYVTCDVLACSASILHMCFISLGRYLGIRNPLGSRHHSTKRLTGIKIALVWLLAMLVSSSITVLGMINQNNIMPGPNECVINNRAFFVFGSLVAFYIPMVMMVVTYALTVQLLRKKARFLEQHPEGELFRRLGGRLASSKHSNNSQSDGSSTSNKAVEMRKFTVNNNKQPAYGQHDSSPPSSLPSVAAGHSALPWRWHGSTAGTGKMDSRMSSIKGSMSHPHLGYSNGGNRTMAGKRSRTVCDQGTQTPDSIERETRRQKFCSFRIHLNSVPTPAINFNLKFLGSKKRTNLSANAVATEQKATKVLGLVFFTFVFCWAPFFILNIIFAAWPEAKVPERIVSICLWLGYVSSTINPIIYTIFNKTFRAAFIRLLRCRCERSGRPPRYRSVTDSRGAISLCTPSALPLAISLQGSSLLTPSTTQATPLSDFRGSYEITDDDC

Turning to `COC(=O)[C@@H]1[C@H]2C[C@H]3c4[nH]c5ccccc5c4CCN3C[C@@H]2CC[C@@H]1O` [yohimbine, yohimbine hydrochloride], the “Ability to inhibit activity in a dose-response manner” value (“Ability to inhibit activity” below) on AGAP002232 [1] and on AGAP002229 [2] was “only the former two exhibited the ability to inhibit activity” in each case.

As to `NCCc1c[nH]c2ccc(C(N)=O)cc12` [5-carboxamidotryptamine], the “Affinity for 5-HT7 receptors” value in the series on 5-HT7 receptors is “strong affinity”.

For the compound `NCCc1c[nH]cn1` [histamine], the “Response to biogenic amines” value at AGAP002232 [1] and on AGAP002229 [2] was “indiscernible from background levels” each time.

As to `NCCc1c[nH]c2ccccc12` [tryptamine, tryptamine hydrochloride], on AGAP002229 [2], the concentration for a half-maximal effect (EC50) (usually the concentration that produces a half-maximal response) stood at 2.76 µM and the “Receptor activation by agonist” value was “able to activate”.

With `NCCc1c[nH]c2ccc(O)cc12` [5-HT, serotonin hydrochloride], in the series on Ae. aegypti [3], the “Successfully blood-fed, normalized to the untreated group” value is given as “approximately 80%”. Further, the EC50 at AGAP002232 [1] was determined as 1.9 µM; on AGAP002229 [2], 0.0874 µM. Moreover, the “Receptor response (cyclic AMP) under Gαs and Gαi/o conditions” value on AGAP002232 [4] and on AGAP002229 [5] was “no measurable responses” each time. Also, in the series with Ae. aegypti [6] (10 mM), the “Effect on flight compared to H2O alone” value is “did not affect flight”. In addition, the “Average distance in flight cylinder” value in the series with Ae. aegypti [6] (10 mM, Fig. 5c) was 25.1 cm. For the same compound, the Ability to fly result with Ae. aegypti [6] (concentrations greater than 10 mM) was “completely inhibited the mosquitoes’ ability to fly”.

Regarding `NCC(O)c1ccc(O)cc1` (racemic) [octopamine, (±)-octopamine hydrochloride], the “Response to biogenic amines” value at AGAP002232 [1] and at AGAP002229 [2] was “indiscernible from background levels” each time.

On to `CCOC(=O)C(N)Cc1ccc(Cl)cc1.Cl` (racemic) [PCPA ethyl ester, 4-chloro-DL-chlorophenylalanine ethyl ester hydrochloride], for which the entries for the “Average blood meal size” value with Ae. aegypti [7] (1 mg/mL in 10% sucrose), with Ae. aegypti [7] (5 mg/mL in 10% sucrose) and in the series on Ae. aegypti [7] (10 mg/mL in 10% sucrose) were 1.84 ± 0.16 µL, 2.33 ± 0.25 µL and 3.53 ± 0.16 µL, respectively. The “Feeding success or blood meal volume versus control” value in the series on Ae. aegypti [7] (1 mg/mL in 10% sucrose) and with Ae. aegypti [7] (5 mg/mL in 10% sucrose) was “did not demonstrate any significant difference” throughout. Further, in the series on Ae. aegypti [7] (10 mg/mL in 10% sucrose), the “Blood feeding success rate” value worked out at 73.2%. The Mortality rate in the series with Ae. aegypti [8] (25 mg/mL in 10% sucrose) and in the series with Ae. aegypti [8] (60 mg/mL in 10% sucrose) was 100% throughout.

Turning to `NCCc1ccc(O)cc1` [tyramine, tyramine hydrochloride], the “Response to biogenic amines” value at AGAP002232 [1] and on AGAP002229 [2] was “indiscernible from background levels” each time.

Turning to `CCCN(CCC)C1CCc2cccc(O)c2C1` (stereo not drawn) [8-OH-DPAT], the “Affinity for 5-HT7 receptors” value with 5-HT7 receptors is “strong affinity”.

For `CN1CCN2c3ccccc3Cc3ccccc3C2C1` (stereo not drawn) [mianserin, mianserin hydrochloride], the “Ability to inhibit activity” value on AGAP002232 [1] and on AGAP002229 [2] was “only the former two exhibited the ability to inhibit activity” in each case.

As to `COc1ccc2[nH]cc(CCN)c2c1` [5-MT, 5-methoxytryptamine], at AGAP002229 [2], the EC50 came to 1.08 µM and the “Receptor activation by agonist” value was “able to activate”.

For `NCCc1ccc(O)c(O)c1` [dopamine, dopamine hydrochloride], the “Response to biogenic amines” value at AGAP002232 [1] and at AGAP002229 [2] was “indiscernible from background levels” throughout.

For the compound `O=C(CCCN1CCC2(CC1)C(=O)NCN2c1ccccc1)c1ccc(F)cc1` [spiperone], the “Ability to inhibit activity” value on AGAP002232 [1] and on AGAP002229 [2] was “only the former two exhibited the ability to inhibit activity” each time.
